Legend:
Histamine H3 receptor [1] = biological target: Histamine H3 receptor (Rattus norvegicus, UniProt Q9QYN8); experiment: Binding affinity for rat histamine H3 receptor on rat cortical cells
Histamine H3 receptor [2] = biological target: Histamine H3 receptor (Homo sapiens, UniProt Q9Y5N1); experiment: Binding affinity for human histamine H3 receptor on human colon cells; assay type: cell-based
Histamine H3 receptor (Homo sapiens, UniProt Q9Y5N1), sequence (Q9Y5N1 whole entry): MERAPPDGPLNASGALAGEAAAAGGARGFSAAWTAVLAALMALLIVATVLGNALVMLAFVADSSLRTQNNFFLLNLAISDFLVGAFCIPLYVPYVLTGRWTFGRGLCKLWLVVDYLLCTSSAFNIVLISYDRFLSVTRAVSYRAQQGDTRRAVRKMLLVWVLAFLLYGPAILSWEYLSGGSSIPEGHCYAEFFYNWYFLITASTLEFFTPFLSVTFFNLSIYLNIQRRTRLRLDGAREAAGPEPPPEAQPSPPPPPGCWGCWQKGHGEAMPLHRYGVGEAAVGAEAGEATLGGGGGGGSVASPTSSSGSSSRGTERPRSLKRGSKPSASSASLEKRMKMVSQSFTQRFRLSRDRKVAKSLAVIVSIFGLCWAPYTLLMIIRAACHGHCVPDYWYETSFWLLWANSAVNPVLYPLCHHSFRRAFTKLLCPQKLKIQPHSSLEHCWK

Histamine H3 receptor (Rattus norvegicus, UniProt Q9QYN8), sequence (Q9QYN8 whole entry): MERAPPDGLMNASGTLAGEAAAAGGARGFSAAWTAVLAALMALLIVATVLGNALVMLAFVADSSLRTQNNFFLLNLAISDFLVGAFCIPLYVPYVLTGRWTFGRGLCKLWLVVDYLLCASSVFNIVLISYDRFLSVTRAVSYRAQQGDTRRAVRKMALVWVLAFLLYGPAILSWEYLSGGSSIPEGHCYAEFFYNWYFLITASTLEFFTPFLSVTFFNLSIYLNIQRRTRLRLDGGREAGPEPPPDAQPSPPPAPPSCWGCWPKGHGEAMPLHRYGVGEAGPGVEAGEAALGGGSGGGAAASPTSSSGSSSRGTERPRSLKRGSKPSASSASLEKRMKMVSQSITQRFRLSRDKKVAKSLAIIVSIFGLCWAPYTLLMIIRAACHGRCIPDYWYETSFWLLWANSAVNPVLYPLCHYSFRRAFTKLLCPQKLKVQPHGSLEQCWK

Row | Compound | Ki (Histamine H3 receptor [1]) [nM] | Ki (Histamine H3 receptor [2]) [nM]
1 | CC(C)Cc1nc(-c2ccc(OCCCN3CCCN(C(=O)[C@@H](C)NC(=O)c4ccco4)CC3)cc2F)no1 | 1.7 | 33
2 | C[C@@H](NC(=O)c1ccco1)C(=O)N1CCN(CCCOc2ccc(-c3noc(C4CC4)n3)c(F)c2)CC1 | 1.1 | 64
3 | C[C@H](NC(=O)OC(C)(C)C)c1nc(-c2ccc(OCCCN3CCCN(C(=O)[C@@H](C)NC(=O)c4ccco4)CC3)cc2F)no1 | 8.2 | 140
4 | C[C@@H](NC(=O)c1ccco1)C(=O)N1CCCN(CCCOc2ccc(-c3noc(C4CCCCCC4)n3)c(F)c2)CC1 | 3.3 | 15
5 | C[C@@H](NC(=O)CC(C)(C)C)C(=O)N1CCN(CCCOc2ccc(-c3noc(CC4CCCC4)n3)c(F)c2)CC1 | 6.4 | 100
6 | C[C@@H](NC(=O)c1cccc(Cl)c1)C(=O)N1CCN(CCCOc2ccc(-c3noc(CC4CCCC4)n3)c(F)c2)CC1 | 6.7 | 36
7 | C[C@@H](NC(=O)c1ccc(Br)cc1)C(=O)N1CCN(CCCOc2ccc(-c3noc(CC4CCCC4)n3)c(F)c2)CC1 | 6.2 | 18
8 | CC(C)C(NC(=O)OC(C)(C)C)c1nc(-c2ccc(OCCCN3CCCN(C(=O)[C@@H](C)NC(=O)c4ccco4)CC3)cc2F)no1 (some centres not stated) | 9.8 | 170
9 | COc1cccc(C(=O)N[C@H](C)C(=O)N2CCN(CCCOc3ccc(-c4noc(CC5CCCC5)n4)c(F)c3)CC2)c1 | 3.6 | 34
10 | C[C@@H](NC(=O)c1ccco1)C(=O)N1CCCN(CCCOc2ccc(-c3noc(-c4ccccc4)n3)c(F)c2)CC1 | 4.1 | 8.6
11 | C[C@@H](NC(=O)c1ccccc1F)C(=O)N1CCN(CCCOc2ccc(-c3noc(CC4CCCC4)n3)c(F)c2)CC1 | 2.9 | 16
12 | C[C@@H](NC(=O)c1cccc(F)c1)C(=O)N1CCN(CCCOc2ccc(-c3noc(CC4CCCC4)n3)c(F)c2)CC1 | 3.8 | 18
13 | CC(C)CCc1nc(-c2ccc(OCCCN3CCCN(C(=O)[C@@H](C)NC(=O)c4ccco4)CC3)cc2F)no1 | 0.56 | 8.6
14 | C[C@@H](NC(=O)CCN1CCOCC1)C(=O)N1CCCN(CCCOc2ccc(-c3noc(CC4CCCC4)n3)c(F)c2)CC1 | 0.58 | 13
15 | C[C@@H](NC(=O)c1ccco1)C(=O)N1CCCN(CCCOc2ccc(-c3noc(Cc4ccccc4)n3)c(F)c2)CC1 | 1.6 | 40
16 | Cc1ccc(C(=O)N[C@H](C)C(=O)N2CCCN(CCCOc3ccc(-c4noc(CC5CCCC5)n4)c(F)c3)CC2)cc1 | 1.4 | 17
17 | C[C@@H](NC(=O)c1ccc(Cl)c(Cl)c1)C(=O)N1CCCN(CCCOc2ccc(-c3noc(CC4CCCC4)n3)c(F)c2)CC1 | 31 | 140
18 | Cc1ccc(C)c(C(=O)N[C@H](C)C(=O)N2CCN(CCCOc3ccc(-c4noc(CC5CCCC5)n4)c(F)c3)CC2)c1 | 6.6 | 75
19 | CC(C)OCc1nc(-c2ccc(OCCCN3CCCN(C(=O)[C@@H](C)NC(=O)c4ccco4)CC3)cc2F)no1 | 3.7 | 110
20 | C[C@@H](NC(=O)c1ccc(C#N)cc1)C(=O)N1CCN(CCCOc2ccc(-c3noc(CC4CCCC4)n3)c(F)c2)CC1 | 1.2 | 9.5
21 | C[C@@H](NC(=O)c1ccco1)C(=O)N1CCCN(CCCOc2ccc(-c3noc(-c4cncs4)n3)c(F)c2)CC1 | 6.2 | 240
22 | CCC(CC)c1nc(-c2ccc(OCCCN3CCCN(C(=O)[C@@H](C)NC(=O)c4ccco4)CC3)cc2F)no1 | 2.3 | 34
23 | C[C@@H](NC(=O)CC1CCCC1)C(=O)N1CCN(CCCOc2ccc(-c3noc(-c4ccccc4)n3)c(F)c2)CC1 | 21 | 130

Row | Compound | Ki (Histamine H3 receptor [1]) [nM] | Ki (Histamine H3 receptor [2]) [nM]
24 | C[C@@H](NC(=O)c1ccco1)C(=O)N1CCN(CCCOc2ccc(C(=O)C3CC3)c(F)c2)CC1 | 1.3 | 43
25 | C[C@@H](NC(=O)c1ccco1)C(=O)N1CCCN(CCCOc2ccc(-c3noc(-c4ccncc4)n3)c(F)c2)CC1 | 11 | 520
26 | CC(C)CC(=O)N[C@H](C)C(=O)N1CCCN(CCCOc2ccc(-c3noc(CC4CCCC4)n3)c(F)c2)CC1 | 1.1 | 13
27 | C[C@@H](N)C(=O)N1CCN(CCCOc2ccc(-c3noc(C4CC4)n3)c(F)c2)CC1 | 3.1 | 560
28 | CC(C)CCC(=O)N[C@H](C)C(=O)N1CCCN(CCCOc2ccc(-c3noc(CC4CCCC4)n3)c(F)c2)CC1 | 2.8 | 23
29 | CC(C)CCC(=O)N[C@H](C)C(=O)N1CCN(CCCOc2ccc(-c3noc(-c4ccccc4)n3)c(F)c2)CC1 | 14 | 68
30 | CCC(=O)N[C@H](C)C(=O)N1CCCN(CCCOc2ccc(-c3noc(CC4CCCC4)n3)c(F)c2)CC1 | 1.1 | 26
31 | C[C@@H](NC(=O)c1ccco1)C(=O)N1CCCN(CCCOc2ccc(-c3noc(CC(C)(C)C)n3)c(F)c2)CC1 | 2.4 | 40
32 | C[C@@H](NC(=O)CCN1CCOCC1)C(=O)N1CCN(CCCOc2ccc(-c3noc(CC4CCCC4)n3)c(F)c2)CC1 | 1.1 | 37
33 | C[C@@H](NC(=O)c1cccc(N(C)C)c1)C(=O)N1CCN(CCCOc2ccc(-c3noc(CC4CCCC4)n3)c(F)c2)CC1 | 2.6 | 47
34 | C[C@@H](NC(=O)[C@H]1CCCO1)C(=O)N1CCN(CCCOc2ccc(-c3noc(-c4ccccc4)n3)c(F)c2)CC1 | 4.2 | 92
35 | C[C@@H](NC(=O)c1ccco1)C(=O)N1CCCN(CCCOc2ccc(-c3noc(-c4ccoc4)n3)c(F)c2)CC1 | 1.7 | 85
36 | CC(C)C(=O)N[C@H](C)C(=O)N1CCN(CCCOc2ccc(-c3noc(CC4CCCC4)n3)c(F)c2)CC1 | 8 | 230
37 | C[C@@H](NC(=O)c1ccco1)C(=O)N1CCCN(CCCOc2ccc(-c3noc(CC4CCCC4)n3)c(F)c2)CC1 | 0.83 | 9.3
38 | C[C@@H](NC(=O)c1cccnc1)C(=O)N1CCN(CCCOc2ccc(-c3noc(CC4CCCC4)n3)c(F)c2)CC1 | 1.7 | 20
39 | C[C@@H](NC(=O)c1cccc(OC(F)(F)F)c1)C(=O)N1CCN(CCCOc2ccc(-c3noc(CC4CCCC4)n3)c(F)c2)CC1 | 24 | 65
40 | C[C@@H](NC(=O)CC(C)(C)C)C(=O)N1CCCN(CCCOc2ccc(-c3noc(CC4CCCC4)n3)c(F)c2)CC1 | 4.9 | 74
41 | CC(C)CCC(=O)N[C@H](C)C(=O)N1CCN(CCCOc2ccc(-c3noc(CC4CCCC4)n3)c(F)c2)CC1 | 6.1 | 98
42 | C[C@@H](NC(=O)CN1CCOCC1)C(=O)N1CCN(CCCOc2ccc(-c3noc(-c4ccccc4)n3)c(F)c2)CC1 | 8.2 | 92
43 | Cc1ccccc1C(=O)N[C@H](C)C(=O)N1CCN(CCCOc2ccc(-c3noc(CC4CCCC4)n3)c(F)c2)CC1 | 2.4 | 13
44 | C[C@@H](NC(=O)c1ccco1)C(=O)N1CCCN(CCCOc2ccc(-c3noc(-c4ccco4)n3)c(F)c2)CC1 | 5 | 170
45 | CC(C)CC(=O)N[C@H](C)C(=O)N1CCN(CCCOc2ccc(-c3noc(CC4CCCC4)n3)c(F)c2)CC1 | 5 | 110
46 | C[C@@H](NC(=O)c1ccco1)C(=O)N1CCCN(CCCOc2ccc(-c3noc(C(C)(C)C)n3)c(F)c2)CC1 | 4.1 | 85

Source: ChEMBL document CHEMBL1147425, “Structure-activity relationships of non-imidazole H(3) receptor ligands. Part 3: 5-Substituted 3-phenyl-1,2,4-oxadiazoles as potent antagonists” (Bioorg Med Chem Lett, 2004)
